Patent US7915293B2, “Ubiquitin ligase inhibitors” (Rigel Pharmaceuticals, Inc., priority 2003, dated 2011)

Legend:
Set-up in all cases: key: “+” indicates that the compound exibits inhibitory activity; “−” indicates that low or no inhibitory activity was observed
[1] = test system: HeLa cells; test: Non-photographic proliferation analysis (Promega Cell titer Aqueous), HeLa; type: cell-based; conditions: 6 concentrations tested
Experimental: (§1) A549 (ATCC# CCL-185), HeLa (ATCC# CCL-2), HCT116 (ATCC# CCL-247), and H1299 (ATCC# CRL-5803) cells were maintained in T175 flasks following the ATCC recommended media and handling procedures. Flasks reaching approximately 70% confluency were trypsinized and resuspended in RPMI media (Cell-Gro catalog number 10-040-CM) modified to contain 5% FBS, 100 ug/mlPen/Strep (Cell-Gro catalog number 30-002-CL), and 0.3 mg/ml L-Glutamine (Cell-Gro catalog number 25-003-CL). A 20,000 cells/ml solution was made for plating. Cells were plated in black Packard 96 well plates by placing 100 μl per well (2,000 cells per well).
(§2) Compounds and additional media were added 24 hours after cell plating. A compound master plate was created with concentrations 500 times greater than the final concentration added to the cells. All compound testing was done in duplicate using 6.3 fold dilutions starting with 10 mM. All outside wells (and 4 internal wells) were DMSO controls. Taxol and at least one additional control were run on all plates. Three microliters of the compound master plate were added to deep well blocks containing 750 μl of RPMI media. One hundred microliters were transferred from the compound/media deep well blocks to the plated cells resulting in a 500 fold dilution of the compounds. Cells were grown at 37° C., 5% CO2 for 48 hours.
(§3) Some cell plates were treated with Promega Cell titer Aqueous 1 kit (promega—VWR catalog number G3580). In this case, 48 hours after the test compound were added, 100 μl of media were removed and 20 μl of cell titer reagent were added to all wells. Plates were incubated at 37° C. for 45 minutes prior to absorbance reads on the Wallac plate reader at 490 nm for 0.1 sec/well.

[2] = test system: A549 cells; test: Non-photographic proliferation analysis (Promega Cell titer Aqueous), A549; type: cell-based; conditions: 6 concentrations tested
Experimental: as §1, §2, §3

[3] = biological target: E3 (His-APC11/APC2-"APC") (Homo sapiens, UniProt Q9NYG5+Q9UJX6); test: Plate-based E3 ligase assay (APC FLAG), auto-ubiquitination; type: biochemical; conditions: 8 concentrations tested
In short: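 His-APC11/APC2 auto-ubiquitination was run in casein-blocked nickel plates for 1 h at room temperature, with E1 at 5 ng/well, UbcH5c at 20 ng/well and APC at 100 ng/well. Buffer was 62.5 mM Tris pH 7.6, 3 mM MgCl2, 1 mM DTT, 2.5 mM ATP and Flag-ubiquitin at 100 ng/well. Detection used anti-Flag/HRP chemiluminescence, and IC50 was typically from 6 or 8 concentrations versus a DMSO control.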

[4] = test system: HeLa cells; test: Cell proliferation assay, photographic image analysis of proliferation, apoptosis and death (PAD assay), HeLa; type: cell-based; conditions: 6 concentrations tested
Experimental: as §1, §2
Cells to be analyzed by photography were fixed and stained. One hundred microliters of media were removed and 100 μl of 9.3% […] was added to each well. Plates were left on the benchtop for 45 minutes. A staining solution containing 1.55 μl of 1 mg/ml DAPI added to 18.75 ml PBS was warmed for 15 minutes at 37° C. The cells were aspirated prior to washing with 100 μl of PBS. Seventy microliters of PBS were aspirated and 170 μl of the DAPI solution were added to each well of fixed cells. Plates were left at room temperature for one hour then aspirated and washed twice with 100 μl of PBS. The stained cells were left at 4° C. for a minimum of 16 hours before photographic analysis with Array Scan II (Cellomics). Analysis of the photographic images to determine numbers of live cells (proliferation), apoptotic cells and dead cells, were according to the methods described in U.S. Provisional Patent Application Ser. No. 60/406,714, which incorporated herein in its entirety.

[5] = test system: A549 cells; test: Cell proliferation assay, photographic image analysis of proliferation, apoptosis and death (PAD assay), A549; type: cell-based; conditions: 6 concentrations tested
In short: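 Cells grown in RPMI with 5% FBS (2,000/well) and dosed 24 h after plating with 6.3-fold dilutions in duplicate (master plate 500× final, top 10 mM stock). After 48 h at 37 °C, cells formamide-fixed and DAPI-stained. Image analysis counted live, apoptotic and dead cells.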

Sequence of E3 (His-APC11/APC2-"APC") (Q9NYG5 whole entry): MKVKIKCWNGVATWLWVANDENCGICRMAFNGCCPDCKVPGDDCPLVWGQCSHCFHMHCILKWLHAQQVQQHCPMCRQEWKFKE
Sequence of E3 (His-APC11/APC2-"APC") (Q9UJX6 whole entry): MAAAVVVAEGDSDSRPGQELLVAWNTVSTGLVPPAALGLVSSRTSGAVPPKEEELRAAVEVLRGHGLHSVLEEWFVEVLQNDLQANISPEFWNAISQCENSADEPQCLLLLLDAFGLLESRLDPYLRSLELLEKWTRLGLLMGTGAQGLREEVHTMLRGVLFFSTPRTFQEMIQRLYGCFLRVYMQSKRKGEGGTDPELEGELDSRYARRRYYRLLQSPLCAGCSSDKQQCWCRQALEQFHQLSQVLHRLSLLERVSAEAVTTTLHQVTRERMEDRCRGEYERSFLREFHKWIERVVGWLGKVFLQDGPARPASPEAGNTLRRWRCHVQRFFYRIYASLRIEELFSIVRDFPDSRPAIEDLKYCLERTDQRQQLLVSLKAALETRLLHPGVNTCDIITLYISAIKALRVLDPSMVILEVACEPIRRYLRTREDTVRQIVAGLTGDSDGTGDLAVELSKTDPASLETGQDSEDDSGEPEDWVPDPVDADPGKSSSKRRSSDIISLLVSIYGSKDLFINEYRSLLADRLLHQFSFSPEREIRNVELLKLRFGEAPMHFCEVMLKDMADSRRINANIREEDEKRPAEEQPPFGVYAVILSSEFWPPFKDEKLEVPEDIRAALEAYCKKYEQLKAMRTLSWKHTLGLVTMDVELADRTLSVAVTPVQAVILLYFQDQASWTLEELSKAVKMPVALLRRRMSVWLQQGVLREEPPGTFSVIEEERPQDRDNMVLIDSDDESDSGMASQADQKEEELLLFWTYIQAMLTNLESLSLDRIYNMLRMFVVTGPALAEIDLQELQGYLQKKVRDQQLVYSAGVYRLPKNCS

Compound	APC Flag 8 pt [3]	Cell Titer-Aqueous, HELA 6 pt [1]	Cell Titer-Aqueous, A549 6 pt [2]	PAD Assay, HELA 6 pt [4]	PAD Assay, A549 6 pt [5]
O=[N+]([O-])c1ccc(Oc2c(Cl)cc(S(=O)(=O)NC(=S)Nc3ccc(Cl)c(Cl)c3)cc2Cl)c(Cl)c1 [Compound 148, 3,5-dichloro-4-(2-chloro-4-nitrophenoxy)-N-{[(3,4-dichlorophenyl)amino]carbothioyl}benzenesulfonamide]	+	−	−		
O=[N+]([O-])c1ccc(Oc2ccc(S(=O)(=O)Nc3ccc(F)cc3C(F)(F)F)cc2Cl)c(C(F)(F)F)c1 [Example 266, 3-chloro-N-[4-fluoro-2-(trifluoromethyl)phenyl]-4-[4-nitro-2-(trifluoromethyl)phenoxy]benzenesulfonamide]	+			+	+
O=[N+]([O-])c1ccc(Oc2ccc(S(=O)(=O)Nc3c(F)cccc3F)cc2Cl)c(C(F)(F)F)c1 [Example 268, 3-chloro-N-(2,6-difluorophenyl)-4-[4-nitro-2-(trifluoromethyl)phenoxy]benzene-sulfonamide]	+			+	+
O=S(=O)(Nc1cc(F)ccc1F)c1ccc(Oc2ncc(C(F)(F)F)cc2Cl)cc1 [Example 269, 4-{[3-chloro-5-(trifluoromethyl)pyridin-2-yl]oxy}-N-(2,5-difluorophenyl)benzene-sulfonamide]	+			−	−
Cc1c(Cl)cccc1S(=O)(=O)Nc1ccc(Oc2ccc([N+](=O)[O-])cc2)cc1 [Example 274, 3-chloro-2-methyl-N-[4-(4-nitrophenoxy)phenyl]benzenesulfonamide]	+			−	+
O=S(=O)(Nc1ccc(Oc2cc(C(F)(F)F)ccc2Cl)cc1F)c1cc(Cl)ccc1Cl [Example 277, 2,5-dichloro-N-{4-[2-chloro-5-(trifluoro-methyl)phenoxy]-2-fluorophenyl}benzene-sulfonamide]	+			+	+
O=S(=O)(Nc1ccc(Oc2ccc(F)cc2)c(Br)c1)c1cc(Cl)ccc1Cl [Example 278, N-[3-bRomo-4-(4-fluorophenoxy)phenyl]-2,5-dichlorobenzenesulfonamide]	+			+	+
O=S(=O)(Nc1ccc(Oc2c(Cl)cc(Cl)cc2Cl)cc1)c1cc(Cl)ccc1Cl [Example 279, 2,5-dichloro-N-[4-(2,4,6-trichlorophenoxy)phenyl]benzenesulfonamide]	+			+	+
Cc1c(Cl)cccc1S(=O)(=O)Nc1ccc(Oc2ccc(F)cc2)c(Br)c1 [Example 281, N-[3-bRomo-4-(4-fluorophenoxy)phenyl]-3-chloro-2-methylbenzenesulfonamide]	+			+	+
O=S(=O)(Nc1ccc(Oc2cc(C(F)(F)F)ccc2Cl)cc1F)c1ccc(F)cc1 [Example 286, N-{4-[2-chloro-5-(trifluoromethyl)phenoxy]-2-fluorophenyl)-4-fluorobenzenesulfonamide]	+			+	+
O=[N+]([O-])c1ccc(Oc2c(Cl)cc(S(=O)(=O)Nc3ccc(Oc4cc(C(F)(F)F)ccc4Cl)cc3F)cc2Cl)c(Cl)c1 [Example 290, 3,5-dichloro-4-(2-chloro-4-nitrophenoxy)-N-{4-[2-chloro-5-(trifluoromethyl)phenoxy]-2-fluorophenyl}benzenesulfonamide]	+			+	+
O=[N+]([O-])c1ccc(Oc2c(Cl)cc(S(=O)(=O)Nc3ccc(Oc4ccc(F)cc4)c(Br)c3)cc2Cl)c(Cl)c1 [Example 291, N-[3-bRomo-4-(4-fluorophenoxy)phenyl]-3,5-dichloro-4-(2-chloro-4-nitrophenoxy) benzenesulfonamide]	+			+	+
O=S(=O)(Nc1ccc(Oc2ncc(C(F)(F)F)cc2Cl)cc1)c1ccccc1C(F)(F)F [Example 296, N-(4-(3-chloro-5-(trifluoromethyl)pyridin-2-yloxy)phenyl)-2-(trifluoromethyl)benzenesulfonamide]	−			−	+

Continued, in another order:

APC Flag 8 pt [3]	Compound	Cell Titer-Aqueous, HELA 6 pt [1]	Cell Titer-Aqueous, A549 6 pt [2]	PAD Assay, HELA 6 pt [4]	PAD Assay, A549 6 pt [5]
+	COc1cccc(NS(=O)(=O)c2cc(Cl)c(Oc3ccc([N+](=O)[O-])cc3Cl)c(Cl)c2)c1F [Example 166, 3,5-dichloro-4-(2-chloro-4-nitrophenoxy)-N-(2-fluoro-3-methoxyphenyl)benzene-sulfonamide]	+	+		
+	O=[N+]([O-])c1ccc(F)c(NS(=O)(=O)c2ccc(Oc3ncc(C(F)(F)F)cc3Cl)cc2)c1 [Example 258, 4-{[3-chloro-5-(trifluoromethyl)pyridin-2-yl]oxy}-N-(2-fluoro-5-nitrophenyl)benzene-sulfonamide]			+	+
+	O=[N+]([O-])c1ccc(Oc2ccc(S(=O)(=O)Nc3cc(Cl)ccc3Cl)cc2Cl)c(C(F)(F)F)c1 [Example 261, 3-chloro-N-(2,5-dichlorophenyl)-4-(4-nitro-2-(trifluoromethyl)phenoxy]benzene-sulfonamide]			+	+
+	O=[N+]([O-])c1ccc(Oc2ccc(S(=O)(=O)Nc3cccc(Br)c3)cc2Cl)c(C(F)(F)F)c1 [Example 270, N-(3-bRomophenyl)-3-chloro-4-[4-nitro-2-(trifluoromethyl)phenoxy]benzenesulfonamide]			+	+
+	O=[N+]([O-])c1ccc(Oc2ccc(NS(=O)(=O)c3cccc(Cl)c3)cc2)cc1 [Example 275, 3-chloro-N-[4-(4-nitrophenoxy)phenyl] benzenesulfonamide]			−	+
+	O=S(=O)(Nc1ccc(Oc2ccc(Cl)cc2)cc1)c1cc(Cl)ccc1Cl [Example 276, 2,5-dichloro-N-[4-(4-chlorophenoxy)phenyl]benzenesulfonamide]			−	+
+	O=S(=O)(Nc1ccc(Oc2ccc(F)cc2)c(Br)c1)c1ccc(F)cc1 [Example 283, N-[3-bRomo-4-(4-fluorophenoxy)phenyl]-4-fluorobenzenesulfonamide]			−	+
+	O=S(=O)(Nc1ccc(Oc2ccc(F)cc2)c(Br)c1)c1ccc(OC(F)(F)F)cc1 [Example 284, N-[3-bRomo-4-(4-fluorophenoxy)phenyl]-4-(trifluoromethoxy)benzenesulfonamide]			+	+
